88 molecules from a melting point compilation (Tetko et al.; mined from patent text by program, amines drawn as free bases though some values may be those of a salt) can be followed below.

As a reminder, the melting point is the temperature, or range, at which the solid turns liquid. Take `O=C([O-])C12CC[N+](Cc3ccc4c(c3)Nc3nccnc3S4)(CC1)CC2`: the melting point is 229 to 230 °C.

As for `C1=C(CCc2ccccc2)CCN(Cc2n[nH]c3c2CCc2ccccc2-3)C1`, the melting point is 173 to 174 °C.

Turning to `COc1cc2c(cc1C(F)(F)F)N(C(=O)N(c1cccc(C)c1)c1ncon1)CC2`, the melting point was in the range of 203 to 204 °C.

On to `Cc1cc(CCC(=O)OC(C)(C)C)nc(-c2nc(=O)c3ccccc3s2)c1`, for which the melting point is 168 to 169 °C.

`COc1ccc(CN2CC=C(/C=C/c3ccc(C#N)cc3)CC2)cc1` came in with a melting point of 120 to 121 °C.

On to `CC(C)C(NC=O)C(=O)O` (stereo not drawn), for which the melting point was 143 to 145 °C.

Molecule `O=C1Nc2ccccc2N2CCN(CCCc3ccncc3)CC12` (stereo not drawn) had a melting point of 188 to 190 °C.

In turn, `CC1(C)C(=O)Nc2cc3oc(Cc4ccncc4)nc3cc21` displayed a melting point of 208 to 211 °C.

Regarding `CCN(CC)CCN1C(=O)Nc2ccc([N+](=O)[O-])cc2C1c1ccccc1` (stereo not drawn), the melting point fell in the range of 161 to 163 °C.

With `COC(=O)c1c(C)cn2cc(OCc3ccccc3)ccc12`, the melting point amounted to 143 °C.

In the case of `Nc1ccccc1-c1cnoc1`, the melting point was in the range of 48 to 51 °C.

Turning to `CCOC(=O)N1CCC(Nc2nc3ncnc(Cl)c3n2Cc2ccc(F)cc2)CC1`, the melting point came out at 127 °C.

On to `CN1CCC(C(C(=O)N2CCCC2)(c2ccccc2)c2ccccc2)C1` (stereo not drawn), for which the melting point was in the range of 137 to 140 °C.

On to `Cc1cn(C)c2c1N(C(=O)CCN1CCCC1)c1ccccc1NC2=O`, for which the melting point turned out to be 185 °C.

`Nc1cccc(C(=O)NS(=O)(=O)c2ccccc2)c1` displayed a melting point of 138 °C.

Take `CCN(CC)C(=O)c1ccc(/C=C(\C)c2ccc3c(c2)C(C)(C)CCC3(C)C)cc1`: the melting point lay within 111 to 112 °C.

`CCCCCCc1ccc(-c2ccc(COC(c3ccccc3)(c3ccccc3)c3ccccc3)cc2[N+](=O)[O-])cc1` displayed a melting point of 86 to 87 °C.

Take `C=C[C@]1(C)C(=O)N(C)[C@H](C(C)(C)C)N1C(=O)c1ccccc1`: the melting point lay in the range of 117 to 118 °C.

Turning to `O=C(c1ccccc1)c1cc2ccncc2[nH]1`, the melting point lay in the range of 245 to 247 °C.

Molecule `O=c1ccn(-c2cccc(OC(F)F)c2)nc1-c1ccnn1-c1ccccc1` yielded a melting point of 159 to 160 °C.

`COc1ccc(N(C(=O)CN2C(=O)C(Cc3n[nH]c4ccccc34)(OC)C(=O)N(c3cccnc3)c3ccccc32)C(C)C)cc1` (stereo not drawn) registered a melting point of 207 to 209 °C.

In turn, `COc1ccccc1COc1ccc2c(c1)C=C(C(=O)O)CCS2(=O)=O` registered a melting point of 168 to 171 °C.

In turn, `CNc1cc(Cl)cc(C)n1` returned a melting point of 69 to 70 °C.

For `COc1ccc(N(C)C(C)=O)cc1C`, the melting point is 65 to 66 °C.

In turn, `O=C(c1ccc(C(=O)N2CC3COCC3C2)cc1)N1CC2COCC2C1` (stereo not drawn) gave a melting point of 192 to 193 °C.

`O=C(CCC1CCCCCCCCCCC1=O)C1=C(O)CSC1=O` (stereo not drawn) had a melting point of 93 to 95 °C.

In turn, `O=C(NCCc1ccccc1)c1ccc(S(=O)(=O)Nc2ccccc2C(=O)O)cc1` showed a melting point of 242 to 244 °C.

`Cc1cc(=O)c2ccc(OCC(O)CNC(C)C)cc2o1` (stereo not drawn) returned a melting point of 80 to 82 °C.

`CNC(=O)c1cc2ccccc2c(-c2ccc(I)cc2)n1` gave a melting point of 163 to 164 °C.

In turn, `Cc1cc2c(cc1Cl)NC(=O)C2c1ccccc1Cl` (stereo not drawn) registered a melting point of 186 °C.

Molecule `CCCCc1nnc(C(=O)N(C)Cc2ccccc2)n1Cc1ccc(-c2ccccc2-c2nnn[nH]2)cc1` showed a melting point of over 95 °C.

In turn, `CC(Cn1cc[nH]c1=NC#N)c1ccc(OC(F)F)c(OC2CCOC2)c1` (stereo not drawn) returned a melting point of 67.8 °C.

`NCC(=O)Nc1cccc(C(N)=O)c1` showed a melting point of 139 to 140 °C.

`CC(=O)NC1(c2ccc(Cl)c(C(F)(F)F)c2)CCN(Cc2ccccc2)CC1` had a melting point of 198 to 199 °C.

As for `Cc1nc2c(N)nc3ccccc3c2n1CCCOCC#Cc1ccccc1`, the melting point is 160 to 162 °C.

`Cc1nc2ccc3c(c2o1)OC(CN1C2CCC1CC(O)(c1cccc(C(F)(F)F)c1)C2)CO3` (stereo not drawn): the melting point lay in the range of 148 to 150 °C.

Regarding `C=CCOC(=O)Nc1cc(C(C)(C)C)[nH]n1`, the melting point is 131 to 132 °C.

`NCC(O)c1cc(C(N)=O)c2[nH]ccc2c1` (stereo not drawn) had a melting point of 88 to 90 °C.

As for `Cc1cc(CCCCCCCOc2ccc(C(=O)OC(C)C)cc2)on1`, the melting point lay in the range of 45 to 46 °C.

The molecule `COc1c(N2C[C@H]3CC=C[C@@]3(N)C2)c(F)cc2c(=O)c(C(=O)O)cn([C@@H]3C[C@@H]3F)c12` returned a melting point of 206 to 208 °C.

Take `O=C(O)[C@H](Cc1cccc(C(F)(F)F)c1)[C@@H](O)c1ccc(F)cc1` (racemic): the melting point is 116 to 118 °C.

Turning to `Cc1cccc(-c2[nH]c(C(C)C)nc2-c2cccc(-c3ccc(S(C)(=O)=O)cc3)c2)n1`, the melting point lay within 104 to 106 °C.

`Cc1ccc2c(c1)C=Cc1cc(C)ccc1C2c1cn(-c2ccnc(N3CCC[C@H]3C(=O)O)n2)c(=O)[nH]c1=O` came in with a melting point of 200 to 205 °C.

For the molecule `COc1c(C2CCN(CCCCNC(=O)c3ccc(-c4ccc(Cl)cc4)c(OCC(N)=O)c3)CC2)ccc2c1CCCC2`, the melting point worked out at 198 °C.

`CNN=C1CCC(C)n2c1ncc(C(=O)O)c2=O` (stereo not drawn): the melting point fell in the range of 219 to 220 °C.

The molecule `COc1ccc(NC(=O)/C(C)=C/c2ccc(C(F)(F)F)cc2)c(C(=O)O)c1` returned a melting point of 207 to 208 °C.

`C/C(=C\c1ccc(OC(C)C)cc1Oc1ncc(C(F)(F)F)cc1Cl)C(=O)NS(=O)(=O)NCCc1ccccc1` displayed a melting point of 147 to 148 °C.

As to `O=S(=O)(c1ccccc1)C(CCCCl)c1ccccc1` (stereo not drawn), the melting point fell in the range of 110 to 112 °C.

`CCN(CC)CCCCNc1ncc2c(n1)N(C1CC1)C(=O)N(c1c(F)c(OC)cc(OC)c1F)C2` showed a melting point of 139 to 141 °C.

For the molecule `COc1cc(C(=O)O)c(OC)c2ccccc12`, the melting point was in the range of 142 to 144 °C.

`COc1ccc(C(=O)Nc2ccc(C)c(C)c2)cc1N` gave a melting point of 138 to 142 °C.

Molecule `CS(=O)(=O)c1ccc(-c2[nH]c(I)cc2-c2ccc(F)cc2)cc1` returned a melting point of 229 to 231 °C.

`Nc1c(-c2csc(-c3ccncc3)n2)c(=O)[nH]c2ccc(Cl)cc12` had a melting point of over 220 °C.

`COC1c2sccc2C(=O)c2ccccc2C1Br` (stereo not drawn) returned a melting point of 103 to 106 °C.

As for `C=CCN1C2CCC3C1CCC2N3C(c1ccc(C(=O)N2CCCC2)cc1)c1cccc(O)c1` (stereo not drawn), the melting point was in the range of 140 to 142 °C.

`CCOC(=O)c1sc(OCC)nc1-c1cccc(C(F)(F)F)c1` registered a melting point of 69 to 72 °C.

`FC(F)(F)c1cc(CO[C@H]2CCCN(Cc3ccccc3)[C@H]2c2ccccc2)cc(C(F)(F)F)c1` registered a melting point of 89 to 93 °C.

Molecule `O=C(O)CCc1cc2ccccc2n1S(=O)(=O)c1ccccc1` registered a melting point of 180 to 185 °C.

`Cc1oc(-c2ccccc2)nc1CCSc1ccc(C=O)cc1` came in with a melting point of 74 to 76 °C.

For the molecule `O=C(O)CCc1ccc2c(c1)OCO2`, the melting point is 86.1 to 88.3 °C.

In the case of `CCCCOc1cc(/C=C(\OCC)C(=O)O)ccc1OCCc1ccc(NS(C)(=O)=O)cc1`, the melting point came out at 141 °C.

`O=C(Nc1cnc2c(c1)nc1n2CCC1O)c1cc2cc(C(F)(F)F)ccc2n1Cc1cccc(F)c1` (stereo not drawn) showed a melting point of 267 to 268 °C.

Take `COCCOc1cc(/C=C/C(=O)NS(=O)(=O)CCC(C)C)n(Cc2ccc(C(F)(F)F)cc2Cl)n1`: the melting point lay within 114 to 116 °C.

Turning to `Cc1cc(OCCc2nc(-c3ccc(-c4ccccc4)cc3)oc2C)ccc1OC(C)(C)C(=O)O`, the melting point is 122 to 123 °C.

`Cc1oc(-c2ccccc2)nc1CCOc1ccc(I)cn1` displayed a melting point of 105 to 106 °C.

In the case of `CCN(CC)CCCNc1ncc2cc(-c3c(Cl)cccc3Cl)c(N=CN(C)C)nc2n1`, the melting point was 100 to 104 °C.

`CCOC(=O)CC1=NN(c2ccc(C(=O)O)cc2)C(=O)C1` had a melting point of 246 °C.

`CN(C)c1nc(NCc2ccco2)nc(Nc2cccc(C(F)(F)F)c2)n1` returned a melting point of 81 to 83 °C.

Molecule `COCc1nc2c(C(F)(F)F)cccc2c(=O)o1` yielded a melting point of 104 to 106 °C.

`CC(CCc1cc2cccnc2n(-c2cccc(N)c2)c1=O)c1ccncc1` (stereo not drawn) had a melting point of 83 to 91 °C.

The molecule `CCOC(=O)C(NC(=O)c1cnc2cccc(C)n2c1=O)C(C)C` (stereo not drawn) displayed a melting point of 136 °C.

`O=C(O)c1cc(=O)cc(-c2ccccc2Cl)o1` had a melting point of 241 to 246 °C.

As for `O=C(Nc1ccc(Sc2ccncc2)cc1)c1ccc([N+](=O)[O-])cc1`, the melting point is 295 to 298 °C.

`Cc1cc(C)c2cccc(OCc3c(Cl)ccc(S(=O)(=O)N4CCC[C@H]4C(=O)NCc4ccc(C=NN)cn4)c3Cl)c2n1` yielded a melting point of 128 to 130 °C.

Molecule `O=C(O)[C@H](Cc1ccc(OCc2ccccc2)cc1)NS(=O)(=O)c1ccc(N2CCC(c3ccccc3)CC2)cc1` had a melting point of 75 to 78 °C.

In turn, `c1ccc(C(c2ccccc2)(c2ccns2)n2ccnc2)cc1` returned a melting point of 164 to 167 °C.

In turn, `CC(=O)c1ccc(C2c3cc(NC(=O)CC(C)(C)C)c(C)c(C)c3OC2(C)C)cc1` (stereo not drawn) gave a melting point of 195 to 196 °C.

The molecule `O=C(O)c1cccc(-c2cc(-c3ccc(Cl)cc3)no2)c1` yielded a melting point of 265 to 266 °C.

For `CC1(C)C(=O)C(C)(C)c2cc(N)c(N)cc21`, the melting point is 179 to 180 °C.

`CCOC(=O)c1cccc(NC(=O)NCC(=O)O)c1` returned a melting point of 174 °C.

Regarding `Nc1nc(Cl)nc2c1ncn2C1C=CCCC1` (stereo not drawn), the melting point is 195 to 197 °C.

Molecule `O=C(Nc1cccc2c(O)cccc12)c1ccc(F)c([N+](=O)[O-])c1` came in with a melting point of 235 to 238 °C.

As to `O=C(Nc1ccnc(Cl)c1)NC1CCCC1`, the melting point is 119 to 121 °C.

On to `Cc1ccc(-n2nc3c4cc(CCc5ccccc5)ccc4[nH]c(=O)n3c2=O)cc1`, for which the melting point came to 303 °C.

Molecule `CCC(C)(CC)NC(=S)Nc1cc(Cl)cc(Cl)c1` displayed a melting point of 128 to 132 °C.

`CC(Oc1ccc(Oc2nc3ccc(Cl)cc3o2)cc1)C(=O)OC[Si](C)(C)C` (stereo not drawn) displayed a melting point of 68 °C.

Molecule `O=C(O)c1ccc(=O)n(CCCNC(=O)c2cccnc2)c1` displayed a melting point of 218 to 220 °C.

As for `Cc1ccc(N)c(Cl)c1C#N`, the melting point is 117 to 119 °C.
